According to ChEMBL document CHEMBL4266042, “Total Synthesis of Norsampsones A and B, Garcinielliptones N and O, and Hyperscabrin A” (J Nat Prod, 2018):

Columns and labels:
Assay type in all cases: functional, cell-based
A549 = experiment: Cytotoxicity against human A549 cells after 3 to 5 days by CellTiter-Glo assay
SNU1 = experiment: Cytotoxicity against human SNU1 cells after 3 to 5 days by CellTiter-Glo assay
786-0 = experiment: Cytotoxicity against human 786-O cells after 3 to 5 days by CellTiter-Glo assay
KMS-11 = experiment: Cytotoxicity against human KMS11 cells after 3 to 5 days by CellTiter-Glo assay

Measured: IC50

CC(C)=CC[C@@H]1C[C@H](CC=C(C)C)C(C)(C)[C@@H](C(=O)C(C)C)C1=O
> 10 µM: A549 | SNU1 | 786-0 | KMS-11

COC(=O)[C@]1(CC=C(C)C)C[C@H](CC=C(C)C)C(C)(C)[C@@H](C(=O)C(C)C)C1=O
> 10 µM: A549 | SNU1 | 786-0 | KMS-11

CC(C)=CCCC(=O)[C@]1(CC=C(C)C)C[C@H](CC=C(C)C)C(C)(C)[C@@H](C(=O)c2ccccc2)C1=O
> 10 µM: A549 | SNU1 | 786-0 | KMS-11

CC(C)=CC[C@@H]1C[C@H](CC=C(C)C)C(C)(C)[C@H](C(=O)C(C)C)C1=O
> 10 µM: A549 | SNU1 | 786-0 | KMS-11

COC(=O)[C@]1(CC=C(C)C)C[C@H](CC=C(C)C)C(C)(C)[C@H](C(=O)C(C)C)C1=O
> 10 µM: A549 | SNU1 | 786-0 | KMS-11

CC(C)=CCCC(=O)[C@]1(CC=C(C)C)C[C@H](CC=C(C)C)C(C)(C)[C@H](C(=O)c2ccccc2)C1=O
> 10 µM: A549 | SNU1 | 786-0 | KMS-11

COC(=O)[C@@]1(CC=C(C)C)C[C@H](CC=C(C)C)C(C)(C)[C@H](C(=O)C(C)C)C1=O
> 10 µM: A549 | SNU1 | 786-0 | KMS-11
